In patent publication US6653081B2, “Methods for monitoring antiretroviral therapy and guiding therapeutic decision in the treatment of HIV/AIDS” (ViroLogic, Inc., priority 2000, dated 2003):
“Also recorded” adds a separate entry of the source.

Assays:
RTV-K103N/I135T/V245E = experiment: Phenotypic susceptibility assay, RTV-K103N/I135T/V245E; format: cell-based, HIV-1; conditions: site-directed K103N + I135T + V245E
Excerpt: (§1) The resistance test vectors containing a functional luciferase gene cassette were constructed and host cells were transfected with the resistance test vector DNA. The resistant test vectors contained patient-derived reverse transcriptase and protease sequences that were either susceptible or resistant to the antiretroviral agents, such as nucleoside reverse transcriptase inhibitors, (NRTIs) non-nucleoside reverse transcriptase inhibitors […] protease inhibitors. The resistance test vector viral particles produced by transfecting the resistance test vector DNA into host cells, either in the presence or absence of PRIs, were used to infect target host cells grown either in the absence of NRTIs or NNRTIs, or in the presence of increasing concentrations of the drug. The amount of luciferase activity produced in infected target host cells in the presence of varying concentrations of drug was compared to the amount of luciferase produced in infected target host cells in the absence of drug. “Drug resistance” was measured as the amount of drug required to inhibit by 50% the luciferase activity detected in the absence of drug (inhibitory concentration 50%, IC50). The IC50 values were determined by plotting percent drug inhibition vs. log10 drug concentration. Stimulation of viral replication was measured as the percent increase in luciferase activity detected when infection occurs in the presence of drug as compared to in the absence of drug.
(§2) Host cells were seeded in 10-cm-diameter dishes and were transfected several days after plating with resistance test vector plasmid DNA and the envelope expression vector. Transfections were performed using a calcium-phosphate precipitation procedure. The cell culture media containing the DNA precipitate was replaced with fresh medium, from one to 24 hours, after transfection. Cell culture media containing resistance test vector viral particles was harvested one to four days after transfection and was passed through a […] filter before being used to infect target host cells, or being stored at −80° C. HIV capsid protein (p24) levels in the harvested cell culture media were determined by an EIA method as described by the manufacturer (SAIC; Frederick, Md.). Before infection, target cells (293 and 293/T) were plated in cell culture media. Control infections were performed using cell culture media from mock transfections (no DNA) or transfections containing the resistance test vector plasmid DNA without the envelope expression plasmid. One to three or more days after infection, the media was removed and cell lysis buffer (Promega) was added to each well. Cell lysates were assayed for luciferase activity (FIG. 3). The inhibitory effect of the drug was determined using the following equation:
(§3) % luciferase inhibition=1−(RLUluc[drug]÷RLUluc)×100
(§4) where RLUluc [drug] is the Relative Light Unit of luciferase activity in infected cells in the presence of drug, and RLUluc is the Relative Light Unit of luciferase activity in infected cells in the absence of drug. IC50values were obtained from the sigmoidal curves that were generated from the data by plotting the percent inhibition of luciferase activity vs. the log10 drug concentration. The percent luciferase stimulation is the negative of the % inhibition calculated using the formula above.
(§5) A resistance test vector containing three mutations, K103N, I135T and V245E (RTV-K103N/I135T/V245E) was constructed and tested in the phenotypic assay described earlier. The results were compared to those determined using a genetically defined resistance test vector that was wild type at positions 103, 135 and 245. We determined the pattern of phenotypic susceptibility to the NNRTIs, delavirdine, nevirapine and efavirenz, in RTV-K103N.

RTV-006782 = experiment: Phenotypic susceptibility assay, RTV-006782; format: cell-based, HIV; conditions: patient 006782; for decrease in susceptibility: V245T, I135T, E138A
Excerpt: as §1, §2, §3, §4
A resistance test vector was constructed as described in Example 1 from a virus sample obtained from patient 006782. The prior and current treatment regimens are unknown. Isolation of viral RNA and RT/PCR was used to generate a patient derived segment (PDS) that comprised viral sequences coding for all of PR and aa 1-313 of RT. The PDS were inserted into an indicator gene viral vector to generate a resistance test vector designated RTV-006782. RTV-006782 was then tested in a phenotypic assay to determine accurately and quantitatively the level of susceptibility to a panel of anti-retroviral drugs. […]

RTV-309-3 = experiment: Phenotypic susceptibility assay, RTV-309-3; format: cell-based, HIV; conditions: single clone from the RTV-309 pool
Excerpt: The resistance test vectors containing a functional luciferase gene cassette were constructed and host cells were transfected with the resistance test vector DNA. The resistant test vectors contained patient-derived reverse transcriptase and protease sequences that were either susceptible or resistant to the antiretroviral agents, such as nucleoside reverse transcriptase inhibitors, (NRTIs) non-nucleoside reverse transcriptase inhibitors […] protease inhibitors. The resistance test vector viral particles produced by transfecting the resistance test vector DNA into host cells, either in the presence or absence of PRIs, were used to infect target host cells grown either in the absence of NRTIs or NNRTIs, or in the presence of increasing concentrations of the drug. The amount of luciferase activity produced in infected target host cells in the presence of varying concentrations of drug was compared to the amount of luciferase produced in infected target host cells in the absence of drug. […] The IC50 values were determined by plotting percent drug inhibition vs. log10 drug concentration. Stimulation of viral replication was measured as the percent increase in luciferase activity detected when infection occurs in the presence of drug as compared to in the absence of drug.
Host cells were seeded in 10-cm-diameter dishes and were transfected several days after plating with resistance test vector plasmid DNA and the envelope expression vector. […] HIV capsid protein (p24) levels in the harvested cell culture media were determined by an EIA method as described by the manufacturer (SAIC; Frederick, Md.). […] The inhibitory effect of the drug was determined using the following equation: […]
where RLUluc [drug] is the Relative Light Unit of luciferase activity in infected cells in the presence of drug, and RLUluc is the Relative Light Unit of luciferase activity in infected cells in the absence of drug. […] The percent luciferase stimulation is the negative of the % inhibition calculated using the formula above. […]

RTV-I270S = experiment: Phenotypic susceptibility assay, RTV-I270S; format: cell-based, HIV-1; conditions: site-directed I270S alone
Excerpt: as §1, §2, §3, §4
A resistance test vector containing all of the mutations present in […] except for the I270S (RTV-013522/270I) was constructed and tested using the phenotypic assay described earlier. The results were compared to those determined using the parent RTV-013522. We determined the pattern of phenotypic susceptibility to the NNRTIs, delavirdine, nevirapine and efavirenz, in the reverted vector RTV-013522/270I. […] In this patient sample the correlation of drug-dependent stimulation of viral replication with the mutation at I270S is very striking. […]

RTV-V245E = experiment: Phenotypic susceptibility assay, RTV-V245E; format: cell-based, HIV-1; conditions: site-directed V245E alone
Excerpt: as §1, §2, §3, §4
as §5, with “a single mutation, V245E, (RTV-V245E)” for “three mutations, K103N, I135T and V245E (RTV-K103N/I135T/V245E)”, “position” for “positions 103, 135 and”, “[…].” for “RTV-K103N.”

[1] = tested on: RTV-1033-3/283L/284R/286T/293V/297E; experiment: Phenotypic susceptibility assay, RTV-1033-3/283L/284R/286T/293V/297E; format: cell-based, HIV; conditions: RTV-1033-3 with L283I, R284K, T286A, V293I and E297K reverted
Excerpt: as §1, §2, §3, §4
A resistance test vector containing all of the mutations present in RTV-1033-3 except for L283I, R284K, T286A, V293I and E297K (RTV-1033-3/283L/284R/286T/293V/297E) was constructed and tested using the phenotypic assay described earlier. The results were compared to those determined using the parent RTV-1033-3. We determined the pattern of phenotypic susceptibility to the NNRTIs, delavirdine, nevirapine and efavirenz, in the reverted vector, RTV-1033-3/283L/284R/286T/293V/297E.

SMILES	drug-dependent stimulation of viral replication (RTV-K103N/I135T/V245E)	reductions in susceptibility compared to wild type control RTV (RTV-K103N/I135T/V245E) [fold]	drug-dependent stimulation of viral replication (RTV-006782) [%]	decrease in susceptibility (RTV-006782) [fold]	reduction in susceptibility (RTV-309-3)	drug-dependent stimulation of viral replication (RTV-I270S) [%]	reductions in susceptibility compared to wild type control RTV (RTV-I270S) [fold]	drug-dependent stimulation of viral replication (RTV-V245E)	reductions in susceptibility compared to wild type control RTV (RTV-V245E)	drug-dependent stimulation of viral replication [1]	reductions in susceptibility compared to wild type control RTV [1] [fold]
O=C1Nc2ccc(Cl)cc2[C@@](C#CC2CC2)(C(F)(F)F)O1 [efavirenz]	no drug-dependent stimulation and not	93	~25	5	wild type pattern of susceptibility	~40	4	no drug-dependent stimulation	no reductions; also recorded: no significant reduction	no drug-dependent stimulation	5
CC(C)Nc1cccnc1N1CCN(C(=O)c2cc3cc(NS(C)(=O)=O)ccc3[nH]2)CC1 [delavirdine]	~20%	169	~70	18.5	wild type pattern of susceptibility	~60	13	no drug-dependent stimulation	no reductions; also recorded: no significant reduction	no drug-dependent stimulation	16
Cc1ccnc2c1NC(=O)c1cccnc1N2C1CC1 [nevirapine]	~15%	244	~60	8	3 fold	~60	15	no drug-dependent stimulation	no reductions; also recorded: no significant reduction	no drug-dependent stimulation	144
